Reference: ChEMBL document CHEMBL6115009
Active and inactive are the calls of the source. The calls are words filed in the database; no cut-off is given here.

Columns and labels:
[1] = molecular target: Glutamate NMDA receptor; GRIN1/GRIN2B (Homo sapiens) (UniProt Q05586+Q13224); experiment: Antagonist activity at GluN1/GluN2B receptor (unknown origin) overexpressed in CHO cells assessed as inhibition of Ca2+ flux incubated for 24 hrs in presence of glycine/L-glutamate by FLIPR assay; type: cell-based
[2] = molecular target: Ionotropic glutamate receptor NMDA 1/2D (Homo sapiens) (UniProt Q05586+O15399); experiment: Antagonist activity at GluN1/GluN2D receptor (unknown origin) overexpressed in CHO cells assessed as inhibition of Ca2+ flux incubated for 24 hrs in presence of glycine/L-glutamate by FLIPR assay; type: cell-based
[3] = molecular target: Ionotropic glutamate receptor NMDA 1/2C (Homo sapiens) (UniProt Q05586+Q14957); experiment: Antagonist activity at GluN1/GluN2C receptor (unknown origin) overexpressed in CHO cells assessed as inhibition of Ca2+ flux incubated for 24 hrs in presence of glycine/L-glutamate by FLIPR assay; type: cell-based
[4] = molecular target: Glutamate NMDA receptor; GRIN1/GRIN2A (Homo sapiens) (UniProt Q05586+Q12879); experiment: Antagonist activity at GluN1/GluN2A receptor (unknown origin) overexpressed in CHO cells assessed as inhibition of Ca2+ flux incubated for 24 hrs in presence of glycine/L-glutamate by FLIPR assay; type: cell-based
[5] = molecular target: Glutamate NMDA receptor (Rattus norvegicus) (UniProt P35439+Q00959+Q00960+Q00961+Q62645+Q8VHN2+Q9R1M7); experiment: Displacement of [3H]TCP from Wistar rat cerebral cortex NMDAR at 10 uM incubated for 1.5 hrs; type: tissue-based
[6] = molecular target: T1, 5-hydroxytryptamine receptor 1A (Homo sapiens) (UniProt P08908); experiment: Displacement of [3H]8-OH-DPAT from recombinant human 5-HT1A receptor expressed in CHO-K1 cells at 0.3 to 3 uM incubated for 1 hr; type: cell-based; conditions: dose 0.3-3 µM
T1 sequence (whole entry): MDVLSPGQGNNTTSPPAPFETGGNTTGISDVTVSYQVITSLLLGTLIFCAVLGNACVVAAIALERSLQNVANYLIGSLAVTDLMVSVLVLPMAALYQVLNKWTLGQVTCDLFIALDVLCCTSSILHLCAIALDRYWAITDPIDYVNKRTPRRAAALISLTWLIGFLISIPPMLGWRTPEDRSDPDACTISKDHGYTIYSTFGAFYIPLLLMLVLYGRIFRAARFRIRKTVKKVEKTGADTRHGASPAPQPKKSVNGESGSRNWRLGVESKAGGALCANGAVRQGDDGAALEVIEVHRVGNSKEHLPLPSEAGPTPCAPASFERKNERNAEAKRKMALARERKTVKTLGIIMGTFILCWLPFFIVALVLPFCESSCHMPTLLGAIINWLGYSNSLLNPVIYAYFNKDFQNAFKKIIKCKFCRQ

[7] = molecular target: Sodium-dependent serotonin transporter (Homo sapiens) (UniProt P31645); experiment: Displacement of [3H]paroxetine from recombinant human SERT expressed in HEK293 cells at 1 to 10 uM incubated for 1 hr; type: cell-based; conditions: dose 1-10 µM
Sodium-dependent serotonin transporter (Homo sapiens), sequence (P31645 whole entry, looked up): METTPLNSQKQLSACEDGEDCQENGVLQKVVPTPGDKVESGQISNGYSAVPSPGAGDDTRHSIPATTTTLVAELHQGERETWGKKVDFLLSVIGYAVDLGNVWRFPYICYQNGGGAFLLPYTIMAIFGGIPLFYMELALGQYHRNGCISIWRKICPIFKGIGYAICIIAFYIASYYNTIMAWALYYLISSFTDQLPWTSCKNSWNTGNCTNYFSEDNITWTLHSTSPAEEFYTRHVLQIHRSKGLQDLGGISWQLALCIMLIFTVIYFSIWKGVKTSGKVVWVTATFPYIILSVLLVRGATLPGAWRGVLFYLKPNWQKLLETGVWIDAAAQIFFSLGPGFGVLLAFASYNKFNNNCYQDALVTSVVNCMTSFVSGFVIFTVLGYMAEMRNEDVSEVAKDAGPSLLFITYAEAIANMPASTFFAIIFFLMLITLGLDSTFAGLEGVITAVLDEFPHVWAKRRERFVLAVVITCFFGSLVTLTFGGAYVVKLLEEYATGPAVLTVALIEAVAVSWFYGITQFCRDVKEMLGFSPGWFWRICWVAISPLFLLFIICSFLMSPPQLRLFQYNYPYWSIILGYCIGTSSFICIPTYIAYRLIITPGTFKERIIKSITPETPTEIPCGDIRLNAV

[8] = molecular target: Sodium-dependent serotonin transporter (Homo sapiens) (UniProt P31645); experiment: Displacement of [3H]paroxetine from recombinant human SERT expressed in HEK293 cells at 10 uM incubated for 1 hr; type: cell-based
[9] = Selectivity index, ratio of displacement of [3H]TCP from Wistar rat cerebral cortex NMDAR to displacement of [3H]diprenorphine from recombinant human mu opioid receptor expressed in CHO-K1 cells; type: cell-based
[10] = molecular target: Histamine H1 receptor (Homo sapiens) (UniProt P35367); experiment: Displacement of [3H]pyrilamine from recombinant human histamine H1 receptor expressed in CHO-K1 cells at 10 to 30 uM incubated for 3 hrs; type: cell-based; conditions: dose 10-30 µM
Histamine H1 receptor (Homo sapiens), sequence (P35367 whole entry): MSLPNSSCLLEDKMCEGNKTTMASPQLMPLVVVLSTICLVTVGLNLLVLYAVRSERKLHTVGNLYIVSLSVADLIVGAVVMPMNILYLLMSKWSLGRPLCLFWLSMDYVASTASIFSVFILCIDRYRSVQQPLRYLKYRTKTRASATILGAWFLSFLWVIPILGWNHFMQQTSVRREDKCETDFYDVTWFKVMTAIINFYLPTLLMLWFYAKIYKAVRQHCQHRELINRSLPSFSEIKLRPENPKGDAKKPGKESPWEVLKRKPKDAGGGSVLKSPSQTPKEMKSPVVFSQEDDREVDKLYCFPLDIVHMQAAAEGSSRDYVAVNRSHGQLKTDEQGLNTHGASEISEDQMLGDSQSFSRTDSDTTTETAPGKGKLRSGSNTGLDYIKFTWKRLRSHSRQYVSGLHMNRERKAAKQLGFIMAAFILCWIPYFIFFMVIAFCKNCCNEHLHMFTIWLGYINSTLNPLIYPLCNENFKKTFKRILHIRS

[11] = molecular target: Sigma non-opioid intracellular receptor 1 (Homo sapiens) (UniProt Q99720); experiment: Displacement of [3H]pentazocine from sigma 1 receptor in human Jurkat cells at 0.3 to 3 uM incubated for 2 hrs; type: cell-based; conditions: dose 0.3-3 µM
Sigma non-opioid intracellular receptor 1 (Homo sapiens), sequence (Q99720 whole entry): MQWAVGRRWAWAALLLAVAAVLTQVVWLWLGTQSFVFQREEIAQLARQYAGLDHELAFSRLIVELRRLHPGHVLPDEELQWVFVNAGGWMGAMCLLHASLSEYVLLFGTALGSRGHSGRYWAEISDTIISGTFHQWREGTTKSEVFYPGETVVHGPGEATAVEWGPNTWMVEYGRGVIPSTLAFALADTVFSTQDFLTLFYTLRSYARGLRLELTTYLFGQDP

| Structure (SMILES) | inhibition [1] | inhibition [2] | inhibition [3] | inhibition [4] | Activity [6] | Activity ([5]; filed as antagonist) | also measured |
| --- | --- | --- | --- | --- | --- | --- | --- |
| C[C@H](CC(C(=O)O)(c1ccccc1)c1ccccc1)N(C)C | inactive | inactive | inactive | inactive | – | – | – |
| C[C@@H](CC(C(=O)O)(c1ccccc1)c1ccccc1)N(C)C | inactive | inactive | inactive | inactive | – | – | – |
| CCC1=[N+](C)[C@@H](C)CC1(c1ccccc1)c1ccccc1 | inactive | inactive | inactive | inactive | – | – | – |
| CCC1=N[C@H](C)CC1(c1ccccc1)c1ccccc1 | – | – | – | – | inactive | – | Activity [5]: inactive |
| CC[C@@H](O)C(C[C@H](C)N(C)C)(c1ccccc1)c1ccccc1 | inactive | inactive | inactive | – | – | – | – |
| CC[C@H](O)C(C[C@H](C)N)(c1ccccc1)c1ccccc1 | – | – | – | – | inactive | Active | Activity [7]: Active |
| C[C@H]1CC(c2ccccc2)(c2ccccc2)C(=O)N1C | inactive | inactive | inactive | inactive | – | – | – |
| CC[C@H](O)C(C[C@@H](C)N)(c1ccccc1)c1ccccc1 | – | – | – | – | inactive | Active | – |
| CCC(=O)C(C[C@H](C)N(C)C)(c1ccccc1)c1ccccc1 | – | – | – | – | Active | Active | – |
| CC[C@@H](O)C(C[C@@H](C)NC)(c1ccccc1)c1ccccc1 | – | – | – | – | inactive | Active | Activity [8]: Active; Ratio pKi [9]: 0.83 |
| CC[C@H](O)C(C[C@@H](C)NC)(c1ccccc1)c1ccccc1 | – | – | – | – | inactive | Active | Activity [8]: Active; Ratio pKi [9]: 0.98 |
| CC[C@@H](O)C(C[C@H](C)N)(c1ccccc1)c1ccccc1 | – | – | – | – | inactive | Active; Compound Activity Comparable To (S)-Methadone | Activity [7]: Active |
| C[C@@H]1CC(c2ccccc2)(c2ccccc2)C(=O)N1C | inactive | inactive | inactive | inactive | – | – | – |
| CC[C@H](O)C(C[C@H](C)NC)(c1ccccc1)c1ccccc1 | – | – | – | – | inactive | Active; Compound Activity Comparable To (S)-Methadone | Activity [10]: Active; Compound Displayed Significant Activity Like (S)-Methadone; Activity [11]: Active |
| CCC1=[N+](C)[C@H](C)CC1(c1ccccc1)c1ccccc1 | inactive | – | – | inactive | – | – | – |
| CC[C@H](O)C(C[C@@H](C)N(C)C)(c1ccccc1)c1ccccc1 | inactive | – | – | – | – | – | – |
